Where two headings read alike, the source gives them in different places.

What all share (assay type): biochemical
One test deals with T1, HDAC3 (Homo sapiens, UniProt O15379).
T1 construct: recombinant, full-length HDAC protein (HDAC1 100 pg/ul, HDAC2 200 pg/ul, HDAC3 100 pg/ul); purchased BPS Biosciences, San Diego, Calif., USA
The test can be described thus: HDAC enzyme assay, HDAC3 (fluorogenic, 384-well). The settings on record: for IC50: recombinant full-length HDAC3, 3 hours incubation, substrate MAZ1600 at Km. The method, then: (§1) The inhibitory effect of compounds on HDAC1-HDAC9 function was determined in vitro using an optimized homogenous assay performed in a 384-well plate format. […] Reactions were performed in assay buffer (50 mM HEPES, 100 mM KCl, 0.001% (v/v) Tween 20, 0.05% (w/v) bovine serum albumin, 200 μM TCEP, pH 7.4) and followed for fluorogenic release of 7-amino-4-methylcoumarin from substrate upon deacetylase and trypsin enzymatic activity. Trypsin was present at a final concentration of 50 nM (Worthington Biochemical Corporation). Fluorescence measurements were obtained approximately every 5 min using a multilabel plate reader and plate stacker (Envision, Perkin-Elmer). Data were analyzed on a plate-by-plate basis for the linear range of fluorescence overtime. The first derivative of data obtained from the plate capture corresponding to the mid-linear range was imported into analytical software (Spotfire DecisionSite and GraphPad Prism). Replicate experimental data from incubations with inhibitor were normalized to DMSO controls. IC50 is determined by logistic regression with unconstrained maximum and minimum values.

A further test concerns the target T2, HDAC1 (Homo sapiens, UniProt Q13547).
T2 construct: recombinant, full-length HDAC protein (HDAC1 100 pg/ul); purchased BPS Biosciences, San Diego, Calif., USA
The test can be described thus: HDAC enzyme assay, HDAC1 (fluorogenic, 384-well). The settings on record: read-out: IC50 HDAC1 (Tables 4-23, isoform selectivity panel). Here is the method:
as §1

In a further test the target is T3, HDAC2 (Homo sapiens, UniProt Q92769).
T3 construct: recombinant, full-length HDAC protein (HDAC1 100 pg/ul, HDAC2 200 pg/ul); purchased BPS Biosciences, San Diego, Calif., USA
Kind of test: HDAC enzyme assay, HDAC2 (fluorogenic, 384-well). Particulars: read-out: IC50 HDAC2 (Tables 4-23, isoform selectivity panel). Here is the method:
as §1

The mark [1] stands for this setting: FIGS. 4A-4D, read-out: IC50 HDAC3 (Tables 4-23, isoform selectivity panel).
[2] abbreviates: read-out: IC50 against HDAC3 (Table 3, data of FIG. 2).

T2 sequence (Q13547 whole entry): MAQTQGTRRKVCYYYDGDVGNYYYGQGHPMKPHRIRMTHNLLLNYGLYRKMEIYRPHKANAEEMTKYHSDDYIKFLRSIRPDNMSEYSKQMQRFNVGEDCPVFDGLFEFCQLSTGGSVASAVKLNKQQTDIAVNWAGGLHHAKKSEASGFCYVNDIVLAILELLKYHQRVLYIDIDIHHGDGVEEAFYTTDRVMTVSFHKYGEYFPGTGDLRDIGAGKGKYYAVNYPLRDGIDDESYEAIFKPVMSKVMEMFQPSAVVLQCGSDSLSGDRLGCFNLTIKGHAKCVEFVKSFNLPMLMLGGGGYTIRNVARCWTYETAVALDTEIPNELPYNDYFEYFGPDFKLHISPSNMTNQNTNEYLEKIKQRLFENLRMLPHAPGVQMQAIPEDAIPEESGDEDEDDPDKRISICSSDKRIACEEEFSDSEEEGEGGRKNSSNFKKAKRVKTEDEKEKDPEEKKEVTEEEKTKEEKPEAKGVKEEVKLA
T3 sequence (Q92769 whole entry): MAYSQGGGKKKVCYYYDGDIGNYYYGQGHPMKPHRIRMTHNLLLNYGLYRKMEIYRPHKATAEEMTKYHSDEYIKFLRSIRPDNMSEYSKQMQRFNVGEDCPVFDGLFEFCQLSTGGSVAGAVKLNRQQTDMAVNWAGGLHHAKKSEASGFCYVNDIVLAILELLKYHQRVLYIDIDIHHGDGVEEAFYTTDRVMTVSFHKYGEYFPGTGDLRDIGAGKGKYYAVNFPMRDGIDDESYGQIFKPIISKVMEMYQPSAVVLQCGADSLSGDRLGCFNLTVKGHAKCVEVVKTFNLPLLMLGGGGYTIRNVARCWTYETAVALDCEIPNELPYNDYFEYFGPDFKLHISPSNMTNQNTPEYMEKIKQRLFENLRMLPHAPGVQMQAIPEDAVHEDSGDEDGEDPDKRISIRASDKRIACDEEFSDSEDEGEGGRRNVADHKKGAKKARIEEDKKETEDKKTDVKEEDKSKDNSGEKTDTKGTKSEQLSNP
T1 sequence (O15379 whole entry): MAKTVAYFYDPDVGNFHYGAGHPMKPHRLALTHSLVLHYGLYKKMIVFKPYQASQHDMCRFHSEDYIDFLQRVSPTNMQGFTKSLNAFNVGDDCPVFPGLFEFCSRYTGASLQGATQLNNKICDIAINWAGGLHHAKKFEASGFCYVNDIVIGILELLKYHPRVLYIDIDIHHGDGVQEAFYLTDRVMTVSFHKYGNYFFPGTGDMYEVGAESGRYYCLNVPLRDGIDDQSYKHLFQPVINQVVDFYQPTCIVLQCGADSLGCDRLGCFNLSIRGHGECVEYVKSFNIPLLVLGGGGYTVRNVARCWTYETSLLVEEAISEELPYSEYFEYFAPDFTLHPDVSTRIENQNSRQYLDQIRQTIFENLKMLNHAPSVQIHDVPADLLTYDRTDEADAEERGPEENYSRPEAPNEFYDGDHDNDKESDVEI
T1 sequence (Q9Y618 395-489 partner limits assumed): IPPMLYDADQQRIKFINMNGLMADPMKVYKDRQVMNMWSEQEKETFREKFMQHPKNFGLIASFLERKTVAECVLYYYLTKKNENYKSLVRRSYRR

With `Nc1cc(F)ccc1NC(=O)c1ccc(C(=O)Nc2cccc3ncccc23)cc1` (racemic) [DL-HDAC1], the values for the half-inhibitory concentration (IC50) on HDAC3 (setting [1]) and at HDAC3 (setting [2]) were 11.1 µM and 10.5 µM, respectively.
For `Nc1cc(F)ccc1NC(=O)c1ccc(C(=O)Nc2ccc(Cl)c(C(F)(F)F)c2)cc1` (racemic) [DL-HDAC2], in that order: 1.33 µM and 1.33 µM.
As to `Nc1cc(F)ccc1NC(=O)c1ccc(C(=O)Nc2cccc3[nH]ccc23)cc1` (racemic) [DL-HDAC3], the concentration for half-maximal inhibition (IC50) is 0.23 µM at HDAC3 (setting [1]), 0.23 µM on HDAC3 (setting [2]), 1.05 µM at HDAC1 and 0.49 µM at HDAC2.
On to `Nc1cc(F)ccc1NC(=O)c1ccc(C(=O)Nc2cccc3sccc23)cc1` (racemic) [DL-HDAC4], for which the concentration for half-maximal inhibition (IC50) at HDAC3 (setting [1]) stood at 0.26 µM; on HDAC3 (setting [2]), 0.27 µM.
For `Nc1cc(F)ccc1NC(=O)c1ccc(C(=O)Nc2ccc(N3CCOCC3)cc2)cc1` (racemic) [DL-HDAC5], the IC50 at HDAC3 (setting [1]) stood at 0.28 µM; on HDAC3 (setting [2]), 0.26 µM; at HDAC1 it was 0.81 µM; on HDAC2 it was 0.44 µM.
On to `CC(NC(=O)c1ccc(C(=O)Nc2ccc(F)cc2N)cc1)c1ccccc1[N+](=O)[O-]` (racemic) [DL-HDAC8], for which the concentration for half-maximal inhibition (IC50) at HDAC3 (setting [1]) worked out at 0.42 µM; on HDAC3 (setting [2]), 0.41 µM; at HDAC1, 1.65 µM; on HDAC2, 0.66 µM.
For `Nc1cc(F)ccc1NC(=O)c1ccc(C(=O)Nc2cccc3cnccc23)cc1` (racemic) [DL-HDAC9], in that order: 0.55 µM, 0.63 µM, 1.55 µM and 0.93 µM.
With `Cc1cc(NC(=O)c2ccc(C(=O)Nc3ccc(F)cc3N)cc2)n[nH]1` (racemic) [DL-HDAC10], the half-inhibitory concentration (IC50) worked out at 0.45 µM on HDAC3 (setting [1]), 0.45 µM at HDAC3 (setting [2]), 2.07 µM on HDAC1 and 0.85 µM on HDAC2.
As to `COc1cc(-c2ccccc2)ccc1NC(=O)c1ccc(C(=O)Nc2ccc(F)cc2N)cc1` (racemic) [DL-HDAC11], the half-maximal inhibitory concentration (IC50) on HDAC3 (setting [1]) was 8.81 µM; at HDAC3 (setting [2]) it was 7.77 µM; at HDAC1, 36 µM; at HDAC2, 4.69 µM.
The corresponding values for `Nc1cc(F)ccc1NC(=O)c1ccc(C(=O)Nc2ccccc2)cc1` (racemic) [DL-HDAC12] are 0.27 µM, 0.27 µM, 0.6 µM and 0.36 µM.
For `Nc1cc(F)ccc1NC(=O)c1ccc(C(=O)NCc2ccc(Br)cc2)cc1` (racemic) [DL-HDAC13], in that order: 0.12 µM, 0.12 µM, 0.2 µM and 0.094 µM.
The corresponding values for `Nc1cc(F)ccc1NC(=O)c1ccc(C(=O)NCCCBr)cc1` (racemic) [DL-HDAC15] are 0.73 µM, 0.71 µM, 3.92 µM and 1.8 µM.
For the compound `Nc1cc(F)ccc1NC(=O)c1ccc(C(=O)NCC(F)(F)F)cc1` (racemic) [DL-HDAC16], the IC50 on HDAC3 (setting [1]) came to 0.42 µM; at HDAC3 (setting [2]), 0.39 µM; on HDAC1, 2.62 µM; at HDAC2 it was 0.99 µM.
For `CC(=O)c1ccc(NC(=O)c2ccc(C(=O)Nc3ccc(F)cc3N)cc2)cc1` (racemic) [DL-HDAC17], in that order: 0.17 µM, 0.15 µM, 1.22 µM and 0.22 µM.
On to `Nc1cc(F)ccc1NC(=O)c1ccc(C(=O)NC2CCNCC2)cc1` (racemic) [DL-HDAC18], for which the IC50 was 0.56 µM at HDAC3 (setting [1]), 0.53 µM on HDAC3 (setting [2]), 3.49 µM at HDAC1 and 0.88 µM at HDAC2.
In the case of `Nc1cc(F)ccc1NC(=O)c1ccc(C(=O)NCCCn2ccnc2)cc1` (racemic) [DL-HDAC19], the IC50 stood at 0.29 µM on HDAC3 (setting [1]), 0.27 µM at HDAC3 (setting [2]), 2.79 µM on HDAC1 and 0.61 µM on HDAC2.
The corresponding values for `Nc1cc(F)ccc1NC(=O)c1ccc(C(=O)NCCc2cccnc2)cc1` (racemic) [DL-HDAC20] are 0.33 µM, 0.29 µM, 1.73 µM and 0.59 µM.
For `Nc1cc(F)ccc1NC(=O)c1ccc(C(=O)NCc2ccccn2)cc1` [LW3], on HDAC3 (HDAC inhibition assays, FIGS. 1A, 1B, 2, 3), the “Selectivity for HDAC3 over other HDAC isoforms” value was “selectively inhibits HDAC3 over other HDAC isoforms”. In addition, the half-maximal inhibitory concentration (IC50) at HDAC3 (setting [2]) was determined as 0.39 µM.
